# Source: patent US10092566B2, “Composition for controlling a gut immunity and use thereof” (SEOUL NATIONAL UNIVERSITY R&DB FOUNDATION, priority 2013, dated 2018)
# How the values were obtained:
# DUOX = DUOX expression by qPCR; type: in vivo, Drosophila; conditions: uracil 20 nM
# Procedure: (§1) Fluorescent RT-PCR was conducted to quantify gene expression and double-stranded DNA dye and SYBR green (Perkin Elmer, Waltham, Mass., USA) were used. To detect target gene trascriptomes, Cecropin (Sense, 5′-ATGAACTTCTACAACATCTTCG-3′ (SEQ ID NO: 5); Antisense, 5′-GGCAGTTGCGGCGACATTGGCG-3′ (SEQ ID NO: 6)), Diptericin (Sense, 5′-GGCTTATCCGATGCCCGACG-3′ (SEQ ID NO: 7); Antisense, 5′-TCTGTAGGTGTAGGTGCTTCCC-3′ (SEQ ID NO: 8)), and DUOX (Sense, 5′-GCTGCACGCCAACCACAAGAGACT-3′ (SEQ ID NO: 9); Antisense, 5′-CACGCGCAGCAGGATGTAAGGTTT-3′ (SEQ ID NO: 10)) were used, and as a control group, Rp49 (Sense, 5′-AGATCGTGAAGAAGCGCACCAAG-3′ (SEQ ID NO: 11); Antisense, 5′-CACCAGGAACTTCTTGAATCCGG-3′ (SEQ ID NO: 12)) was used. SYBR green analysis was conducted by an ABI PRISM 7700 system (PE Applied Biosystems, Foster City, Calif., USA) according to the manufacturer's instructions. All of the samples were repeated three times and analyzed, and a detected amount of mRNA was normalized with mRNA in the control group. Normalized data was used to quantify the relative amount of mRNA according to cycling threshold analysis. Targeted gene expression was expressed as the relative amount of expression.
# IMD pathway = experiment: Gut IMD pathway activation (Cec expression, qPCR); type: in vivo, Drosophila; conditions: uracil 20 nM, 4 hours
# Procedure: as §1
# Drosophila S2 cells = experiment: Measurement of intracellular calcium (fura-2); type: cell-based; conditions: uracil 20 nM
# Procedure: Intracellular Ca^2+ was measured by the method disclosed in the previous research (Rosker et al., J Biol Chem 279, pp. 13696-13704, 2004). Briefly speaking, Drosophila S2 cells (approx. 10^8 cells) were loaded with pH 7.4 buffer containing 10 mM glucose, 140 mM NaCl, 1 mM CaCl2, 5 mM KCl, 1 mM MgCl2, and 10 mM HEPES and the solution was treated with […] fura-2-acetoxymethyl ester for 40 minutes at room temperature. The cells were washed twice with pH 7.4 Ca^2+ chelating buffer containing 10 mM glucose, 140 mM NaCl, 1 mM EDTA, 1 mM EGTA, 5 mM KCl, 1 mM MgCl2, and 10 mM HEPES, and were re-suspended in the same buffer. Then, 20 nM of uracil was added to the cells. Fluorescence was continuously recorded at an interval of 0.5 seconds (excitation at 340 nm and 380 nm; emission at 510 nm) by fluorescent spectrophotometer (Shimadzu, Tokyo, Japan) at room temperature.
# E. carotovora-pyrE::Tn5 [1] = experiment: Gut infection and survival analysis; type: in vivo, Erwinia carotovora; conditions: coingestion of 1 nM uracil with E. carotovora-pyrE::Tn5
# Text: During the late exponential phase, different bacteria (E. carotovora, E. carotovora-pyrE::Tn5, E. carotovora-pyrE::Tn5-pyrE, E. carotovora-guaA::Tn5, and E. carotovora-purC::Tn5) were obtained by the centrifugation, and the pellets were washed with PBS and suspended in a 5% sucrose solution. Without a hunger stage, to continuously provide Drosophila with bacteria while being infected, male adult Drosophila (5 to 6 days old) were moved to the bottle with filter paper soaked with a 5% sucrose solution containing different bacteria. The filter paper was changed every day. During the recovery experiment, the coingestion of E. carotovora-pyrE::Tn5 (+uracil) and 1 nM of uracil or the expression of an E. carotovora-pyrE::Tn5 strain, which was genetically recovered by the expression of functional pyrE genes (+pyrE), was utilized.
# E. carotovora-pyrE::Tn5 [2] = experiment: Bacterial persistence in the midgut (CFU); type: in vivo, Erwinia carotovora; conditions: coingestion of 1 nM uracil with E. carotovora-pyrE::Tn5; CFU 6 hours after ingestion
# Procedure: To measure gut sustainability of E. carotovora strains (E. carotovora, E. carotovora-pyrE::Tn5, and E. carotovora-pyrE::Tn5-pyrE), a 5% sucrose solution containing approx. 10^10 cells of E. carotovora strains were orally administered to female adult Drosophila (5 to 6 days old) for 2 hours. Midguts were dissected at 6 hours after ingestion. Midguts, posterior guts, and crops of which the surfaces were sterilized were homogenized and diluted accordingly. These were smeared on a Luria-Bertani agar plate, and some of colony-forming units (CFUs) were obtained from each midgut. During the recovery experiment, the coingestion of E. carotovora-pyrE::Tn5 (+uracil) and 1 nM of uracil or the expression of an E. carotovora-pyrE::Tn5 strain, which was genetically recovered by the expression of functional pyrE genes (+pyrE), was utilized.
# gut cells = conditions: in vivo
# Procedure: To measure cell apoptosis in gut cells caused by a long-term exposure to uracil, genetically different germ-free adult Drosophila (5 to 6 days old) were maintained on the standard corn meal agar media with a supplemental 1 nM of uracil for 20 days.
# Midguts of female Drosophila (20 days old) collected above were used for the analysis of cell apoptosis. Midguts were dissected in PBS, and cell apoptosis analysis was conducted by terminal deoxynucleotidyl transferase (TdT)-mediated dUDP nick end labeling method as disclosed in the previous research (Ryu et al., Science 319, pp. 777-782, 2008).
# The cell apoptotic index was indicated by dividing the number of apoptotic cells with respect to the total number of cells and multiplying the value by 100.
# Ce-DUOX1 = experiment: ROS (DUOX-dependent H2O2) measurement in C. elegans; type: in vivo; conditions: uracil-containing media, 2 hours
# Text: C. elegans were raised and maintained as disclosed in the previous research (Chavez et al., Infect Immun 77, pp. 4983-4989, 2009). As disclosed in the previous research, L1 nematodes were fed with bacteria containing Ce-DUOX1-RNAi vectors throughout the step L4 to introduce Ce-DUOX1-RNAi (Chavez et al., Infect Immun 77, pp. 4983-4989, 2009). Standard feeding system RNAi process using Ce-DUOX1-RNAi may cause a developmental disability which indicates a serious level of mortality. As disclosed in the previous research, to give a partial knock-down effect, Ce-DUOX1-RNAi bacteria were mixed with bacteria containing control RNAi at a ratio of 1:70. In the early adult stage, nematodes were obtained and washed with M9 minimal media. Nematodes (about 200 to 300 individuals) were placed in a 96-well plate comprising uracil-containing media ([…]) at 20° C. for 2 hours.
# DUOX-dependent H2O2, as basically disclosed in the previous research (Chavez et al., Infect Immun 77, pp. 4983-4989, 2009), was measured at room temperature for 2 hours following addition of […] of Amplex UltraRed solution (Invitrogen) and […] of reacting buffer including 0.2 units/mL of horseradish peroxidase (Sigma). Fluorescence of each sample was measured by fluorescent microplate readers at 530 nm of excitation wavelength and 590 nm of emission wavelength. […]
structure (smiles),measurement,setting,value
O=c1cc[nH]c(=O)[nH]1 [uracil],DUOX gene induction,DUOX,DUOX gene induction
same,gut IMD pathway activation leading to AMP production,IMD pathway,unable to activate the gut IMD pathway
same,Ca2+ mobilization,Drosophila S2 cells,Ca^2+ mobilization
same,host survival rate after URA− pathogen infection,E. carotovora-pyrE::Tn5 [1],sufficient to restore the host survival rate
same,prolonged midgut persistence of URA− pathogens,E. carotovora-pyrE::Tn5 [2],abolished
same,gut cell apoptosis after long-term ingestion of uracil,gut cells,Extensive apoptosis in gut cells
same,DUOX-dependent ROS generation in C. elegans,Ce-DUOX1,able to activate DUOX-dependent ROS generation
